Consider 22 molecules from patent US20230181536A1, “ANTICANCER COMBINATION THERAPY WITH N-(1-ACRYLOYL-AZETIDIN-3-YL)-2-((1H-INDAZOL-3-YL)AMINO)METHYL)-1H-IMIDAZOLE-5-CARBOXAMIDE INHIBITOR OF KRAS-G12C” (TAIHO PHARMACEUTICAL CO., LTD., priority 2020, published 2023).

As usually defined, the IC50 is the concentration at which inhibition is half-maximal. Low readings indicate inhibition by little substance, high ones a need for much substance.

SMILES strings stand for the structures.

T1 sequence (P01116 1-169 isoform P01116-2 G12C): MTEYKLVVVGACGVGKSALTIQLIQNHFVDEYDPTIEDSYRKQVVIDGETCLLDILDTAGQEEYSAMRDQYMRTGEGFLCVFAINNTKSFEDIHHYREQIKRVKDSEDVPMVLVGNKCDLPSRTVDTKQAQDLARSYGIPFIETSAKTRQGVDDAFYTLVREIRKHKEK

The test addresses T1, KRAS G12C (Homo sapiens, UniProt P01116, G12C).
T1 construct: KRAS G12C (amino acid region: 1-169)
Put plainly: Inhibitory activity on the KRAS G12C nucleotide (GDP-GTP) exchange reaction. Type of test: biochemical. The settings on record: Bodipy FL GDP-bound KRAS G12C 25 nM; preincubation at 25° C. for 4 hours; SOS1 100 nM, GppNHp 1 μM, reaction for 30 minutes. The method, then:
Test Example 2: Evaluation of Inhibitory Activity of Compounds on the KRAS G12C Nucleotide (GDP-GTP) Exchange Reaction
The inhibitory activity of compounds on the exchange reaction of GDP into GppNHp in Bodipy (trademark) FL-bound KRAS G12C was examined by fluorescence measurement using human recombinant KRAS G12C and SOS1 proteins.
For the preparation of KRAS G12C to which Bodipy FL GDP was bound, first, 50 µM KRAS G12C (amino acid region: 1-169) and 1 mM Bodipy FL GDP (Invitrogen, G22360) were incubated for 1 hour in a buffer (20 mM Tris-HCl (pH 7.5), 50 mM NaCl, 1 mM DTT) in ice in the presence of 2.5 mM EDTA. Thereafter, MgCl2 with a final concentration of 10 mM was added, and the mixture was incubated at room temperature for 30 minutes. The protein was allowed to pass through a NAP-5 column to remove free nucleotides and was used for compound evaluation.
For the measurement of the inhibitory activity of compounds on nucleotide exchange reaction, first, the compound of the disclosure was diluted stepwise with dimethyl sulfoxide (DMSO). Subsequently, a solution of the gradually diluted compound of the disclosure in DMSO (the final concentration of DMSO: 5%) and KRAS G12C (25 nM) bound to Bodipy FL GDP were added to a reaction buffer (20 mM Tris-HCl (pH 7.5), 100 mM NaCl, 1 mM MgCl2, 2 mM DTT, 0.1% Tween20), followed by preincubation at 25° C. for 4 hours. Thereafter, Son of Sevenless Homolog 1 (SOS1, amino acid region: 564-1049) and GppNHp (GMPPNP, Jena Bioscience GmbH, NU-401-50) were added such that their final concentration was 100 nM and 1 μM respectively, followed by reaction for 30 minutes. The change in fluorescence intensity of Bodipy FL (excitation wavelength: 485 nm, fluorescence wavelength: 520 nm) immediately after the start of reaction and after 30 minutes from the start of reaction was standardized. The signal value for only DMSO was determined to be 0% inhibition, and the signal value for no addition of GppNHp was determined to be 100% inhibition. The compound concentration at which 50% inhibition is achieved was determined to be the IC50 (nM) and was calculated.
With `C=CC(=O)N1CC(NC(=O)c2c(Cl)nc(CNc3n[nH]c4cc(Cl)c(C(C)(C)C)cc34)n2-c2ccccn2)C1` [Example 94, N-(1-acryloylazetidin-3-yl)-2-(((5-(tert-butyl)-6-chloro-1H-indazol-3-yl)amino)methyl)-4-chloro-1-(pyridin-2-yl)-1H-imidazole-5-carboxamide], the IC50 stood at 118 nM.
`C=CC(=O)N1CCC(NC(=O)c2c(C)nc(CNc3n[nH]c4cc(Cl)c(C(C)(C)C)cc34)n2C)CC1` [Example 47, N-(1-acryloylpiperidin-4-yl)-2-(((5-(tert-butyl)-6-chloro-1H-indazol-3-yl)amino)methyl)-1,4-dimethyl-1H-imidazole-5-carboxamide] came in with an IC50 of 1730 nM.
Molecule `C=CC(=O)N1CC(NC(=O)c2c(C(F)F)nc(CNc3n[nH]c4cc(Cl)c(C(C)(C)C)cc34)n2CC2CCCN2C(C)C)C1` (stereo not shown) [Example 95, N-(1-acryloylazetidin-3-yl)-2-(((5-(tert-butyl)-6-chloro-1H-indazol-3-yl)amino)methyl)-4-(difluoromethyl)-1-((1-isopropylpyrrolidine-2-yl)methyl)-1H-imidazole-5-carboxamide] had an IC50 of 44 nM.
To `C=CC(=O)N1CC(NC(=O)c2c(C)nc(CNc3n[nH]c4cc(Cl)c(C(C)(C)C)cc34)n2CC(F)(F)F)C1` [Example 22, N-(1-acryloylazetidin-3-yl)-2-(((5-(tert-butyl)-6-chloro-1H-indazol-3-yl)amino)methyl)-4-methyl-1-(2,2,2-trifluoroethyl)-1H-imidazole-5-carboxamide] belongs 55 nM; to `C=CC(=O)N1CC[C@@H](N(C)C(=O)c2cnc(CNc3n[nH]c4cc(Cl)c(C(C)(C)C)cc34)n2C)C1` [Example 77, (R)-N-(1-acryloylpyrrolidin-3-yl)-2-(((5-(tert-butyl)-6-chloro-1H-indazol-3-yl)amino)methyl)-N,1-dimethyl-1H-imidazole-5-carboxamide], 142 nM; to `C=CC(=O)N1C[C@H](NC(=O)c2c(C)nc(CNc3n[nH]c4cc(Cl)c(C(C)(C)C)cc34)n2C)[C@@H](O)C1` [Example 62, N-((3S,4S)-1-acryloyl-4-hydroxypyrrolidin-3-yl)-2-(((5-(tert-butyl)-6-chloro-1H-indazol-3-yl)amino)methyl)-1,4-dimethyl-1H-imidazole-5-carboxamide], 96 nM.
`C=CC(=O)N1CC(NC(=O)c2c(C(F)(F)F)nc(CNc3n[nH]c4cc(Cl)c(C(C)(C)C)cc34)n2C)C1` [Example 25, N-(1-acryloylazetidin-3-yl)-2-(((5-(tert-butyl)-6-chloro-1H-indazol-3-yl)amino)methyl)-1-methyl-4-(trifluoromethyl)-1H-imidazole-5-carboxamide] gave an IC50 of 163 nM.
The result for `C=CC(=O)N1C[C@@H](CO)[C@@H](NC(=O)c2c(C)nc(CNc3n[nH]c4cc(Cl)c(C(C)(C)C)cc34)n2C)C1` [Example 58, N-((3R,4R)-1-acryloyl-4-(hydroxymethyl)pyrrolidin-3-yl)-2-(((5-(tert-butyl)-6-chloro-1H-indazol-3-yl)amino)methyl)-1,4-dimethyl-1H-imidazole-5-carboxamide] reads 28 nM.
To `C=CC(=O)N1CC(NC(=O)c2cnc(CNc3n[nH]c4cc(Cl)c(C)cc34)n2C)C1` [Example 37, N-(1-acryloylazetidin-3-yl)-2-(((6-chloro-5-methyl-1H-indazol-3-yl)amino)methyl)-1-methyl-1H-imidazole-5-carboxamide] belongs 5480 nM; to `C=CC(=O)N1CC[C@@H](NC(=O)c2c(F)nc(CNc3n[nH]c4cc(Cl)c(C(C)(C)C)cc34)n2C)C1` [Example 72, (R)-N-(1-acryloylpyrrolidin-3-yl)-2-(((5-(tert-butyl)-6-chloro-1H-indazol-3-yl)amino)methyl)-4-fluoro-1-methyl-1H-imidazole-5-carboxamide], 71 nM; to `C=CC(=O)N1CC(NC(=O)c2c(Cl)nc(CNc3n[nH]c4cc(Cl)c(C(C)(C)C)cc34)n2[C@H]2CCOC2)C1` [Example 97, (S)-N-(1-acryloylazetidin-3-yl)-2-(((5-(tert-butyl)-6-chloro-1H-indazol-3-yl)amino)methyl)-4-chloro-1-(tetrahydrofuran-3-yl)-1H-imidazole-5-carboxamide], 4 nM.
Turning to `C=CC(=O)N1CC(NC(=O)c2cnc(CNc3n[nH]c4cc(Cl)c(CC)cc34)n2C)C1` [Example 39, N-(1-acryloylazetidin-3-yl)-2-(((6-chloro-5-ethyl-1H-indazol-3-yl)amino)methyl)-1-methyl-1H-imidazole-5-carboxamide], the concentration for half-maximal inhibition (IC50) is 870 nM.
Regarding `C=CC(=O)N1CC(NC(=O)c2c(C)nc(CNc3n[nH]c4cc(Cl)c(C(C)(C)C)cc34)n2CCC)C1` [Example 19, N-(1-acryloylazetidin-3-yl)-2-(((5-(tert-butyl)-6-chloro-1H-indazol-3-yl)amino)methyl)-4-methyl-1-propyl-1H-imidazole-5-carboxamide], the IC50 was determined as 9 nM.
The result for `C=CC(=O)N1C[C@H](NC(=O)c2c(Cl)nc(CNc3n[nH]c4cc(Cl)c(C(C)(C)C)cc34)n2C)[C@@H](F)C1` [Example 76, N-((3S,4S)-1-acryloyl-4-fluoropyrrolidin-3-yl)-2-(((5-(tert-butyl)-6-chloro-1H-indazol-3-yl)amino)methyl)-4-chloro-1-methyl-1H-imidazole-5-carboxamide] reads 13 nM.
The result for `C=CC(=O)N1CC(NC(=O)c2c(C)nc(CNc3n[nH]c4cc(Cl)c(C(C)(C)C)cc34)n2CCCC)C1` [Example 18, N-(1-acryloylazetidin-3-yl)-1-butyl 2-(((5-(tert-butyl)-6-chloro-JH-indazol-3-yl)amino)methyl)-4-methyl-JH-imidazole-5-carboxamide] reads 12 nM; that for `C=CC(=O)N1CC(NC(=O)c2sc(CNc3n[nH]c4cc(Cl)c(C(C)(C)C)cc34)nc2C)C1` [Example 2, N-(1-acryloylazetidin-3-yl)-2-(((5-(tert-butyl)-6-chloro-1H-indazol-3-yl)amino)methyl)-4-methylthiazole-5-carboxamide], 365 nM; that for `C=CC(=O)N1CC(NC(=O)c2c(Cl)nc(CNc3n[nH]c4cc(Cl)c(C(C)(C)C)cc34)n2CCOC)C1` [Example 90, N-(1-acryloylazetidin-3-yl)-2-(((5-(tert-butyl)-6-chloro-1H-indazol-3-yl)amino)methyl)-4-chloro-1-(2-methoxyethyl)-1H-imidazole-5-carboxamide], 6 nM.
As for `C=CC(=O)N1CC(NC(=O)c2c(Cl)nc(CNc3n[nH]c4cc(Cl)c(C(C)(C)C)cc34)n2[C@@H]2CCN(Cc3ccccc3)C2)C1` [Example 122, (R)-N-(1-acryloylazetidin-3-yl)-1-(1-benzylpyrrolidin-3-yl)-2-(((5-(tert-butyl)-6-chloro-1H-indazol-3-yl)amino)methyl)-4-chloro-1H-imidazole-5-carboxamide], the IC50 is 6 nM.
`C=CC(=O)N1CC(NC(=O)c2c(C)nc(CNc3n[nH]c4cc(Cl)c(C(C)(C)C)cc34)n2Cc2ccccc2)C1` [Example 15, N-(1-acryloylazetidin-3-yl)-1-benzyl-2-(((5-(tert-butyl)-6-chloro-1H-indazol-3-yl)amino)methyl)-4-methyl-JH-imidazole-5-carboxamide]: the IC50 was found to be 84 nM.
The result for `C=CC(=O)N1CC(NC(=O)c2cnc(C(C)Nc3n[nH]c4cc(Cl)c(C(C)(C)C)cc34)n2C)C1` (stereo not shown) [Example 4, N-(1-acryloylazetidin-3-yl)-2-(1-((5-(tert-butyl)-6-chloro-1H-indazol-3-yl)amino)ethyl)-1-methyl-1H-imidazole-5-carboxamide] reads 1560 nM.
Molecule `C=CC(=O)N1CC(NC(=O)c2c(Cl)nc(CNc3n[nH]c4cc(Cl)c(C(C)(C)C)cc34)n2[C@@H]2C[C@@H](C)N(CC(F)F)C2)C1` [Example 126, N-(1-acryloylazetidin-3-yl)-2-(((5-(tert-butyl)-6-chloro-1H-indazol-3-yl)amino)methyl)-4-chloro-1-((3R,5R)-1-(2,2-difluoroethyl)-5-methylpyrrolidin-3-yl)-1H-imidazole-5-carboxamide] had an IC50 of 4 nM.
`C=CC(=O)N1CC(NC(=O)c2c(Cl)nc(CNc3n[nH]c4cc(Cl)c(C(C)(C)C)cc34)n2CC(C)C)C1` [Example 89, N-(1-acryloylazetidin-3-yl)-2-(((5-(tert-butyl)-6-chloro-1H-indazol-3-yl)amino)methyl)-4-chloro-1-isobutyl-1H-imidazole-5-carboxamide] had an IC50 of 7 nM.
